Some results are limits rather than exact numbers.

One assay relates to MV4:11 human cancer cell lines. Kind of assay: Cellular viability / anti-proliferative activity, CellTiter-Glo, 5 day protocol. It counts as cell-based. Particulars: Homo sapiens, MV4-11, 120 h, MV4:11 cells; 5 day incubation; CellTiter-Glo; mean of minimum two replicates; read-out: GI50 on cellular proliferation of MV4:11 human cancer cell lines. The method in brief: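 Cells seeded at 200 per well (7200 cells/mL) with compound in 2-fold serial dilutions from 30 μM top (22 points), 0.3% DMSO final. Viability read by CellTiter-Glo luminescence after 5 days; GI50 from sigmoidal dose-response fit, mean of at least two replicates.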
Background: Cellular ATP, detected with luciferase, serves as a proxy for viable cell number.
In the case of `Cc1cncc([C@H](C)N2CCc3c(cc(Cn4ccnc4C)cc3-c3cn(C)nc3C(F)(F)F)C2=O)c1` [Example 200, (S)-7-((2-Methyl-1H-imidazol-1-yl)methyl)-5-(1-methyl-3-(trifluoromethyl)-1H-pyrazol-4-yl)-2-(1-(5-methylpyridin-3-yl)ethyl)-3,4-dihydroisoquinolin-1(2H)-one], the GI50 was less than 50 nM. Still for that read-out and setting: the same measure for `COc1ccnc([C@H](C)N2CCc3c(cc(Cn4ccnc4C)cc3-c3cccnc3C)C2=O)c1` [Example 202, (S)-2-(1-(4-Methoxypyridin-2-yl)ethyl)-7-((2-methyl-1H-imidazol-1-yl)methyl)-5-(2-methylpyridin-3-yl)-3,4-dihydroisoquinolin-1(2H)-one]: 230 nM; for `COc1ccnc([C@H](C2CC2)N2CCc3c(cc(Cn4ccnc4C)cc3-c3cn(C)nc3C)C2=O)c1` [Example 203, (S)-2-(Cyclopropyl(4-methoxypyridin-2-yl)methyl)-5-(1,3-dimethyl-1H-pyrazol-4-yl)-7-((2-methyl-1H-imidazol-1-yl)methyl)-3,4-dihydroisoquinolin-1(2H)-one]: 52 nM.

With `Cc1nccn1Cc1cc2c(c(-c3cn(C)nc3C(F)(F)F)c1)CCN(Cc1cc(Br)c3ccccc3n1)C2=O` [Example 204, 2-((4-Bromoquinolin-2-yl)methyl)-7-((2-methyl-1H-imidazol-1-yl)methyl)-5-(1-methyl-3-(trifluoromethyl)-1H-pyrazol-4-yl)-3,4-dihydroisoquinolin-1(2H)-one], the GI50 turned out to be 58 nM. `Cc1nccn1Cc1cc2c(c(-c3cn(C)nc3C(F)(F)F)c1)CCN(Cc1cc(Br)ccn1)C2=O` [Example 205, 2-((4-Bromopyridin-2-yl)methyl)-7-((2-methyl-1H-imidazol-1-yl)methyl)-5-(1-methyl-3-(trifluoromethyl)-1H-pyrazol-4-yl)-3,4-dihydroisoquinolin-1(2H)-one]: the GI50 was less than 50 nM. Same read-out and setting: the same measure for `CCn1cc(-c2cc(Cn3ccnc3C)cc3c2CCN([C@H](c2cc(OC)ccn2)C2CC2)C3=O)c(C(F)(F)F)n1` [Example 206, (S)-2-(cyclopropyl(4-methoxypyridin-2-yl)methyl)-5-(1-ethyl-3-(trifluoromethyl)-1H-pyrazol-4-yl)-7-((2-methyl-1H-imidazol-1-yl)methyl)-3,4-dihydroisoquinolin-1(2H)-one]: less than 50 nM. On the same count and under the same terms, the same measure for `Cc1nccn1Cc1cc2c(c(-c3cn(C)nc3C(F)(F)F)c1)CCN(Cc1cccc(Br)c1)C2=O` [Example 207, 2-(3-Bromobenzyl)-7-((2-methyl-1H-imidazol-1-yl)methyl)-5-(1-methyl-3-(trifluoromethyl)-1H-pyrazol-4-yl)-3,4-dihydroisoquinolin-1(2H)-one]: 75 nM. On the same count and under the same terms, the same measure for `Cc1cc(CN2CCc3c(cc(Cn4ccnc4C)cc3-c3cn(C)nc3C(F)(F)F)C2=O)ccn1` [Example 208, 7-((2-Methyl-1H-imidazol-1-yl)methyl)-5-(1-methyl-3-(trifluoromethyl)-1H-pyrazol-4-yl)-2-((2-methylpyridin-4-yl)methyl)-3,4-dihydroisoquinolin-1(2H)-one]: 251 nM; for `Cc1cccc(CN2CCc3c(cc(Cn4ccnc4C)cc3-c3cn(C)nc3C(F)(F)F)C2=O)c1` [Example 209, 7-((2-Methyl-1H-imidazol-1-yl)methyl)-5-(1-methyl-3-(trifluoromethyl)-1H-pyrazol-4-yl)-2-(3-methylbenzyl)-3,4-dihydroisoquinolin-1(2H)-one]: 85 nM. For the compound `CCc1cccc(CN2CCc3c(cc(Cn4ccnc4C)cc3-c3cn(C)nc3C(F)(F)F)C2=O)c1` [Example 210, 2-(3-Ethylbenzyl)-7-((2-methyl-1H-imidazol-1-yl)methyl)-5-(1-methyl-3-(trifluoromethyl)-1H-pyrazol-4-yl)-3,4-dihydroisoquinolin-1(2H)-one], the GI50 is 148 nM. `COc1ccnc([C@H](C2CC2)N2CCc3c(cc(Cn4ccnc4)cc3-c3cn(C)nc3C)C2=O)c1` [Example 211, (S)-7-((1H-Imidazol-1-yl)methyl)-2-(cyclopropyl(4-methoxypyridin-2-yl)methyl)-5-(1,3-dimethyl-1H-pyrazol-4-yl)-3,4-dihydroisoquinolin-1(2H)-one]: the GI50 worked out at 84 nM. The same measure, in the same setting: the same measure for `CCn1cc(-c2cc(Cn3ccnc3)cc3c2CCN([C@H](c2cc(OC)ccn2)C2CC2)C3=O)c(C(F)(F)F)n1` [Example 212, (S)-7-((1H-Imidazol-1-yl)methyl)-2-(cyclopropyl(4-methoxypyridin-2-yl)methyl)-5-(1-ethyl-3-(trifluoromethyl)-1H-pyrazol-4-yl)-3,4-dihydroisoquinolin-1(2H)-one]: less than 50 nM; for `Cc1cc(CN2CCc3c(cc(Cn4ccnc4C)cc3-c3cn(C)nc3C(F)(F)F)C2=O)cnc1Cl` [Example 213, 2-((6-Chloro-5-methylpyridin-3-yl)methyl)-7-((2-methyl-1H-imidazol-1-yl)methyl)-5-(1-methyl-3-(trifluoromethyl)-1H-pyrazol-4-yl)-3,4-dihydroisoquinolin-1(2H)-one]: less than 50 nM; for `CCc1ccc(OCC(=O)NCc2cccnc2)c(CN2CCc3c(cc(Cn4ccnc4C)cc3-c3cn(C)nc3C(F)(F)F)C2=O)c1` [Example 215, 2-(4-Ethyl-2-((7-((2-methyl-1H-imidazol-1-yl)methyl)-5-(1-methyl-3-(trifluoromethyl)-1H-pyrazol-4-yl)-1-oxo-3,4-dihydroisoquinolin-2(19)-yl)methyl)phenoxy)-N-(pyridin-3-ylmethyl)acetamide]: 168 nM. Still for that read-out and setting: with `Cc1nccn1Cc1cc2c(c(-c3cn(C)nc3C(F)(F)F)c1)CCN(Cc1cc(Br)cc3c1OCC3)C2=O` [Example 216, 2-((5-Bromo-2,3-dihydrobenzofuran-7-yl)methyl)-7-((2-methyl-1H-imidazol-1-yl)methyl)-5-(1-methyl-3-(trifluoromethyl)-1H-pyrazol-4-yl)-3,4-dihydroisoquinolin-1(2H)-one] the figure was 56 nM; with `CCc1ccc(OC)c(CN2CCc3c(cc(Cn4ccnc4C)cc3-c3cn(C)nc3C(F)(F)F)C2=O)c1` [Example 217, 2-(5-Ethyl-2-methoxybenzyl)-7-((2-methyl-1H-imidazol-1-yl)methyl)-5-(1-methyl-3-(trifluoromethyl)-1H-pyrazol-4-yl)-3,4-dihydroisoquinolin-1(2H)-one], 149 nM; with `Cc1cc2c(c(CN3CCc4c(cc(Cn5ccnc5C)cc4-c4cn(C)nc4C(F)(F)F)C3=O)c1)OCC2` [Example 218, 7-((2-Methyl-1H-imidazol-1-yl)methyl)-2-((5-methyl-2,3-dihydrobenzofuran-7-yl)methyl)-5-(1-methyl-3-(trifluoromethyl)-1H-pyrazol-4-yl)-3,4-dihydroisoquinolin-1(2H)-one], less than 50 nM. The same measure, in the same setting: the same measure for `Cc1ccc2[nH]ncc2c1-c1cc(CN2CCc3c(cc(Cn4ccnc4C)cc3-c3cn(C)nc3C(F)(F)F)C2=O)cc(OC(F)(F)F)c1` [Example 220, 7-((2-Methyl-1H-imidazol-1-yl)methyl)-2-(3-(5-methyl-1H-indazol-4-yl)-5-(trifluoromethoxy)benzyl)-5-(1-methyl-3-(trifluoromethyl)-1H-pyrazol-4-yl)-3,4-dihydroisoquinolin-1(2H)-one]: 1940 nM; for `Cc1nccn1Cc1cc2c(c(-c3cn(C)nc3C(F)(F)F)c1)CCN(Cc1cccc(C(F)(F)F)c1)C2=O` [Example 221, 7-((2-Methyl-1H-imidazol-1-yl)methyl)-5-(1-methyl-3-(trifluoromethyl)-1H-pyrazol-4-yl)-2-(3-(trifluoromethyl)benzyl)-3,4-dihydroisoquinolin-1(2H)-one]: 421 nM; for `Cc1cnc(Cl)c(CN2CCc3c(cc(Cn4ccnc4C)cc3-c3cn(C)nc3C(F)(F)F)C2=O)c1` [Example 223, 2-((2-Chloro-5-methylpyridin-3-yl)methyl)-7-((2-methyl-1H-imidazol-1-yl)methyl)-5-(1-methyl-3-(trifluoromethyl)-1H-pyrazol-4-yl)-3,4-dihydroisoquinolin-1(2H)-one]: less than 50 nM. For `COc1ccnc([C@H](C)N2CCc3c(cc(Cn4ccnc4C)cc3-c3ccncc3C)C2=O)c1` [Example 224, (S)-2-(1-(4-Methoxypyridin-2-yl)ethyl)-7-((2-methyl-1H-imidazol-1-yl)methyl)-5-(3-methylpyridin-4-yl)-3,4-dihydroisoquinolin-1(2H)-one], the GI50 came to 72 nM. On the same count and under the same terms, the same measure for `Cc1nccn1Cc1cc2c(c(-c3cn(C)nc3C(F)(F)F)c1)CCN(Cc1cc(Cl)cc3ccccc13)C2=O` [Example 225, 2-((3-Chloronaphthalen-1-yl)methyl)-7-((2-methyl-1H-imidazol-1-yl)methyl)-5-(1-methyl-3-(trifluoromethyl)-1H-pyrazol-4-yl)-3,4-dihydroisoquinolin-1(2H)-one]: 195 nM; for `Cc1nccn1Cc1cc2c(c(-c3cn(C)nc3C(F)(F)F)c1)CCN(Cc1cccc(Cl)c1)C2=O` [Example 226, 2-(3-Chlorobenzyl)-7-((2-methyl-1H-imidazol-1-yl)methyl)-5-(1-methyl-3-(trifluoromethyl)-1H-pyrazol-4-yl)-3,4-dihydroisoquinolin-1(2H)-one]: 950 nM; for `COc1cc(CN2CCc3c(cc(Cn4cnc5ccccc54)cc3-c3ccc(F)cc3C)C2=O)cc(OC)c1` [Example 227]: 7450 nM.

The same assay, now with this note: MV4:11 cells; 5 day incubation; CellTiter-Glo; mean of minimum two replicates; read-out: GI50 on cellular proliferation of MV4:11 human cancer cell lines.
As to `Cc1cc([C@H](C)N2CCc3c(cc(Cn4ccnc4)cc3-c3cn(C)nc3C(F)(F)F)C2=O)ncc1F` [Example 201, (S)-7-((1H-imidazol-1-yl)methyl)-2-(1-(5-fluoro-4-methylpyridin-2-yl)ethyl)-5-(1-methyl-3-(trifluoromethyl)-1H-pyrazol-4-yl)-3,4-dihydroisoquinolin-1(2H)-one], the GI50 is less than 50 nM.

For the origin of these results see US11999716B2, “WDR5 inhibitors and modulators” (priority 2018, dated 2024).
